Experimental data published in patent publication US7759345B2, “Antitumoral derivatives of ET-743” (priority 2001, dated 2010).
Read-outs that look alike come from different tables or passages of the source.

Legend:
[1] = system: Liver
Description: (§9) Toxicity was asssessed by the methods reported in Toxicology in Vitro, 15 (2001) 571-577, J. Luber Narod et al.: “Evaluation of the use of in vitro methodolodies as tools for screening new compounds for potential in vivo toxicity”.

[2] = system: Skeletal
Description: as §9

[3] = system: MDA-MB-231; experiment: Inhibition of cells growth by colorimetric assay (SRB), MDA-MB-231; format: cell-based; conditions: for CC50 / GI50: Homo sapiens; for CC50: MDA-MB-231, 48 h; for GI50: MDA-MB-231
Description: (§1) 2°.—Inhibition of Cells Growth by Colorimetric Assay.
(§2) A colorimetric type of assay, using sulforhodamine B (SRB) reaction has been adapted for a quantitative measurement of cell growth and viability [following the technique described by Philip Skehan, et al. (1990), New colorimetric cytotoxicity assay for anticancer drug screening, J. Natl. Cancer Inst., 82:1107-1112]
(§3) This form of the assay employs 96 well cell culture microplates of 9 mm diameter (Faircloth, 1988; Mosmann, 1983). Most of the cell lines are obtained from American Type Culture Collection (ATCC) derived from different human cancer types.
(§4) Cells are maintained in RPMI 1640 10% FBS, supplemented with 0.1 g/l penicillin and 0.1 g/l streptomycin sulfate and then incubated at 37° C., 5% CO2 and 98% humidity. For the experiments, cells were harvested from subconfluent cultures using trypsin and resuspended in fresh medium before plating.
(§5) Cells are seeded in 96 well microtiter plates, at 5×10^3 cells per well in aliquots of 195 μl medium, and they are allowed to attach to the plate surface by growing in drug free medium for 18 hours. Afterward, samples are added in aliquots of 5 μl in a ranging from 10 to 10^−8 μg/ml, dissolved in DMSO/EtOH/PBS (0.5:0.5:99). After 48 hours exposure, the antitumor effect are measured by the SRB methodology: cells are fixed by adding 50 μl of cold 50% (wt/vol) trichloroacetic acid (TCA) and incubating for 60 minutes at 4° C. Plates are washed with deionized water and dried. One hundred μl of SRB solution (0.4% wt/vol in 1% acetic acid) is added to each microtiter well and incubated for 10 minutes at room temperature. Unbound SRB is removed by washing with 1% acetic acid. Plates are air dried and bound stain is solubilized with Tris buffer. Optical densities are read on a automated spectrophotometric plate reader at a single wavelength of 490 nm.
(§6) The values for mean+/−SD of data from triplicate wells are calculated. Some parameters for cellular responses can be calculated: GI=growth inhibition, TGI=total growth inhibition (cytostatic effect) and LC=cell killing (cytotoxic effect).
(§7) Obtained results may predict the usefulness of a certain drug as a potential cancer treatment. For this technique, compounds which show GI50 values smaller than 10 μg/ml are selected to continue with further studies. GI50's data allow to predict that not only could a drug be cystostatic, but also it could have a potential in terms of tumor reduction.

[4] = system: A-549; experiment: Inhibition of cells growth by colorimetric assay (SRB), A-549; format: cell-based; conditions: for GI50 / LC50 (concentration for 50% cell killing): Homo sapiens, A549, 48 h
Method in brief: (§8)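 Sulforhodamine B protein-stain readout (490 nm) after 48 h drug exposure, with GI, TGI and LC parameters calculated from triplicate means. Cells seeded at 5×10^3 per well, allowed 18 h drug-free attachment; dose range 10 to 10^−8 μg/ml, vehicle DMSO/EtOH/PBS (0.5:0.5:99).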

[5] = system: SW620; experiment: Inhibition of cells growth by colorimetric assay (SRB), SW620; format: cell-based; conditions: for LC50 / GI50: Homo sapiens
Description: as §1, §2, §3, §4, §5, §6, §7

[6] = system: MCF-7; experiment: Inhibition of cells growth by colorimetric assay (SRB), MCF-7; format: cell-based; conditions: for CC50 / GI50: Homo sapiens
Description: as §1, §2, §3, §4, §5, §6, §7

[7] = system: Heart
Description: as §9

[8] = system: A-498; experiment: Inhibition of cells growth by colorimetric assay (SRB), A-498; format: cell-based; conditions: for LC50 / GI50: Homo sapiens; for LC50: A498, 48 h; for GI50: A498
Description: as §1, §2, §3, §4, §5, §6, §7

[9] = system: Myelo
Description: as §9

[10] = system: Kidney
Description: as §9

[11] = system: DU-145; experiment: Inhibition of cells growth by colorimetric assay (SRB), DU-145; format: cell-based; conditions: for GI50 / CC50: Homo sapiens, DU-145, 48 h
Method in brief: as §8

[12] = system: HT-29; experiment: Inhibition of cells growth by colorimetric assay (SRB), HT-29; format: cell-based; conditions: for GI50 / LC50 (concentration for 50% cell killing): Homo sapiens, HT-29, 48 h
Method in brief: as §8

[13] = system: SK-MEL-28; experiment: Inhibition of cells growth by colorimetric assay (SRB), SK-MEL-28; format: cell-based; conditions: for GI50 / CC50: Homo sapiens, SK-MEL-28, 48 h
Method in brief: as §8

[14] = SW-620, 48 h, read-out: SW-620 LC50

## COc1cc2c(cc1O)CCN[C@]21CS[C@@H]2c3c(OC(C)=O)c(C)c4c(c3[C@H](COC1=O)N1C2[C@H]2c3c(cc(C)c(OC)c3OC(=O)OC(C)(C)C)C[C@@H]([C@@H]1O)N2C)OCO4 (stereo partly drawn) [Compound 97]
[1]
  Toxicity Data Liver: 1.57E-08
[2]
  Toxicity Data Skeletal: 4.62E-09
[3]; read-out: MB-231 LC50
  CC50: 34.8 nM
[3]; MB-231, SRB, 48 hours exposure, read-out: MB-231 GI50
  GI50: 0.348 nM
[3]; MB-231, SRB, 48 hours exposure
  MB-231 TGI: 6.96E-10
[4]; A-549, SRB, 48 hours exposure
  A-549 TGI: 9.28E-10
[4]; A-549, SRB, 48 hours exposure, read-out: A-549 GI50
  GI50: 0.348 nM
[4]; read-out: A-549 LC50, A-549, SRB, 48 hours exposure
  LC50 (concentration for 50% cell killing): 3.48 nM
[5]; [14]
  LC50: 9.28 nM
[5]; SW-620, SRB, 48 hours exposure, read-out: SW-620 GI50
  GI50: 0.58 nM
[5]; SW-620, SRB, 48 hours exposure
  SW-620 TGI: 2.32E-09
[6]; MCF7, 48 h, read-out: MCF LC50
  CC50: 11.6 nM
[6]; MCF7, MCF, SRB, 48 hours exposure, read-out: MCF GI50
  GI50: 1.16 nM
[6]; MCF, SRB, 48 hours exposure
  MCF TGI: 3.48E-09
[7]
  Toxicity Data Heart: 9.63E-08
[8]; A-498, SRB, 48 hours exposure
  A-498 TGI: 2.32E-09
[8]; read-out: A-498 LC50
  LC50: 9.28 nM
[8]; A-498, SRB, 48 hours exposure, read-out: A-498 GI50
  GI50: 0.58 nM
[9]
  Toxicity Data Myelo: 1.77E-08
[10]
  Toxicity Data Kidney: 1.43E-08
[11]; DU-145, SRB, 48 hours exposure
  DU-145 TGI: 3.48E-10
[11]; DU-145, SRB, 48 hours exposure, read-out: DU-145 GI50
  GI50: 0.232 nM
[11]; read-out: DU-145 LC50, DU-145, SRB, 48 hours exposure
  CC50: 0.928 nM
[12]; HT-29, SRB, 48 hours exposure
  HT-29 TGI: 2.32E-09
[12]; read-out: HT-29 GI50
  GI50: 0.928 nM
[12]; read-out: HT-29 LC50, HT-29, SRB, 48 hours exposure
  LC50 (concentration for 50% cell killing): 9.28 nM
[13]; MEL-28, SRB, 48 hours exposure, read-out: MEL-28 GI50
  GI50: 0.348 nM
[13]; read-out: MEL-28 LC50, MEL-28, SRB, 48 hours exposure
  CC50: 3.48 nM
[13]; MEL-28, SRB, 48 hours exposure
  MEL-28 TGI: 9.28E-10

## COc1cc2c(cc1OC(=O)CCc1ccccc1)CCN[C@]21CS[C@@H]2c3c(OC(C)=O)c(C)c4c(c3[C@H](COC1=O)N1C2[C@H]2c3c(cc(C)c(OC)c3O)C[C@@H]([C@@H]1O)N2C)OCO4 (stereo partly drawn) [Compound 72]
[1]
  Toxicity Data Liver: 1.55E-08
[2]
  Toxicity Data Skeletal: 1.32E-08
[3]; read-out: LC50 MB-231
  CC50: 11.2 nM
[3]; MB-231, SRB, 48 hours exposure, read-out: GI50 MB-231
  GI50: 2.24 nM
[3]; MB-231, SRB, 48 hours exposure
  TGI MB-231: 3.36E-09
[4]; A-549, SRB, 48 hours exposure
  TGI A-549: 3.36E-09
[4]; A-549, SRB, 48 hours exposure, read-out: GI50 A-549
  GI50: 1.12 nM
[4]; read-out: LC50 A-549, A-549, SRB, 48 hours exposure
  LC50 (concentration for 50% cell killing): 7.83 nM
[5]; SW-620, 48 h, read-out: LC50 SW-620
  LC50: 11.2 nM
[5]; SW-620, SRB, 48 hours exposure, read-out: GI50 SW-620
  GI50: 2.24 nM
[5]; SW-620, SRB, 48 hours exposure
  TGI SW-620: 3.36E-09
[6]; MCF7, 48 h, read-out: LC50 MCF
  CC50: 11.2 nM
[6]; MCF7, MCF, SRB, 48 hours exposure, read-out: GI50 MCF
  GI50: 2.24 nM
[6]; MCF, SRB, 48 hours exposure
  TGI MCF: 4.47E-09
[7]
  Toxicity Data Heart: 3.78E-08
[8]; A-498, SRB, 48 hours exposure
  TGI A-498: 4.47E-09
[8]; read-out: LC50 A-498
  LC50: 11.2 nM
[8]; A-498, SRB, 48 hours exposure, read-out: GI50 A-498
  GI50: 2.24 nM
[9]
  Toxicity Data Myelo: 2.15E-08
[10]
  Toxicity Data Kidney: 1.85E-08
[11]; DU-145, SRB, 48 hours exposure
  TGI DU-145: 3.36E-09
[11]; DU-145, SRB, 48 hours exposure, read-out: GI50 DU-145
  GI50: 2.24 nM
[11]; read-out: LC50 DU-145, DU-145, SRB, 48 hours exposure
  CC50: 8.95 nM
[12]; HT-29, SRB, 48 hours exposure
  TGI HT-29: 7.83E-09
[12]; HT-29, SRB, 48 hours exposure, read-out: GI50 HT-29
  GI50: 2.24 nM
[12]; read-out: LC50 HT-29, HT-29, SRB, 48 hours exposure
  LC50 (concentration for 50% cell killing): 11.2 nM
[13]; MEL-28, SRB, 48 hours exposure, read-out: GI50 MEL-28
  GI50: 2.24 nM
[13]; read-out: LC50 MEL-28, MEL-28, SRB, 48 hours exposure
  CC50: 7.83 nM
[13]; MEL-28, SRB, 48 hours exposure
  TGI MEL-28: 3.36E-09

## COc1cc2c(cc1OC(=O)OC(C)(C)C)CCN[C@]21CS[C@@H]2c3c(OC(=O)OC(C)(C)C)c(C)c4c(c3[C@H](COC1=O)N1C2[C@H]2c3c(cc(C)c(OC)c3O)C[C@@H]([C@@H]1O)N2C)OCO4 (stereo partly drawn) [Compound 173]
[1]
  Toxicity Data Liver: 4.03E-08
[2]
  Toxicity Data Skeletal: 2.49E-06
[3]; read-out: MB-231 LC50
  CC50: 21.7 nM
[3]; SRB assay, 48 hours exposure, read-out: MB-231 GI50
  GI50: 2.17 nM
[3]; SRB assay, 48 hours exposure
  MB-231 TGI: 7.61E-09
[4]; read-out: A-549 GI50
  GI50: 3.26 nM
[4]; read-out: A-549 LC50, SRB assay, 48 hours exposure
  LC50 (concentration for 50% cell killing): 10.9 nM
[4]; SRB assay, 48 hours exposure
  A-549 TGI: 4.35E-09
[5]; SW-620, 48 h, read-out: SW-620 GI50
  GI50: 3.26 nM
[5]; [14]
  LC50: 21.7 nM
[5]; SRB assay, 48 hours exposure
  SW-620 TGI: 6.52E-09
[6]; MCF7, 48 h, read-out: MCF GI50
  GI50: 3.26 nM
[6]; MCF7, 48 h, read-out: MCF LC50
  CC50: 109 nM
[6]; SRB assay, 48 hours exposure
  MCF TGI: 9.78E-09
[7]
  Toxicity Data Heart: 1.19E-07
[8]; read-out: A-498 LC50
  LC50: 21.7 nM
[8]; SRB assay, 48 hours exposure, read-out: A-498 GI50
  GI50: 2.17 nM
[8]; SRB assay, 48 hours exposure
  A-498 TGI: 4.35E-09
[9]
  Toxicity Data Myelo: 4.98E-06
[10]
  Toxicity Data Kidney: 7.09E-08
[11]; SRB assay, 48 hours exposure, read-out: DU-145 GI50
  GI50: 1.09 nM
[11]; read-out: DU-145 LC50, SRB assay, 48 hours exposure
  CC50: 3.26 nM
[11]; SRB assay, 48 hours exposure
  DU-145 TGI: 2.17E-09
[12]; SRB assay, 48 hours exposure, read-out: HT-29 GI50
  GI50: 2.17 nM
[12]; read-out: HT-29 LC50, SRB assay, 48 hours exposure
  LC50 (concentration for 50% cell killing): 9.78 nM
[12]; SRB assay, 48 hours exposure
  HT-29 TGI: 6.52E-09
[13]; SRB assay, 48 hours exposure, read-out: MEL-28 GI50
  GI50: 2.17 nM
[13]; read-out: MEL-28 LC50, SRB assay, 48 hours exposure
  CC50: 10.9 nM
[13]; SRB assay, 48 hours exposure
  MEL-28 TGI: 5.43E-09
